In US11998008B2, “Pesticides and methods of controlling pests” (The State of Israel, Ministry of Agriculture & Rural …, priority 2017, dated 2024):

Key:
B. cinerea = test: Fungicidal activity assay on PDA in sealed Petri dish (growth inhibition and mortality); format: cell-based, Botrytis cinerea; settings: Botrytis cinerea, NA + number = still viable in the highest concentration tested (given as >), read-out: M - Mortality, minimal concentration that killed the fungus
Method: (§1) In exemplary procedures, the fungicidial activity of the compounds listed in Table 2 were examined by activity assays as follow: Petri dishes, 90 mm in diameter, with air volume of 80 mL, contained 10-12 mL of growth medium comprising potato dextrose agar (PDA) (Acumedia, Lansing, Michigan, USA) amended with tetracycline at 12 μg/mL. Each compound was placed on a disconnected cover from an Eppendorf tube that was located in the middle of the Petri dish and a hyphae-containing plug of each test fungus was added to the culture plate. In exemplary procedures, the tested compounds trans-2-heptenal, trans-2-octenal were tested in comparison with octanal, trans-2-octen-1-ol, methyl trans-2-octenoate, trans-3-octen-2-one and 3-pentenenitrile. In addition, cyclic ketones as 2-cyclopenten-1-one, 2-cyclohexen-1-one and α-tetralone were also examined. Then, the culture plate was sealed with parafilm and incubated at room-temperature for 2 days, after which the growth of the test fungi in those dishes was compared with those in the test compound-free control dishes. At the end of the assay, the viability of each test fungus was evaluated by transferring inoculum plugs to fresh PDA plates and observing the growth that developed within the next 2 days. The test fungi used in this study included but were not limited to Alternaria alternata, Botrytis cinerea, Sclerotinia rolfsii, Penicillium digitatum, Fusarium oxysporum f. sp. radicis-cucumerinum and Rhizoctonia solani.

tomato seedlings = test: Phytotoxicity: growth of tomato seedlings in treated sandy soil in pots; format: in vivo; settings: soil treated with 54 ppm, nine days
Method: Sandy soil from a plot that was treated with 54 ppm of trans-2-octenal was removed to small pots in which either seeds of corn, cotton, and peanut were sown (FIGS. 16A-16C) or tomato seedlings were planted therein (FIG. 16E).

[1] = system: F. oxysporum f. sp. radicis-cucumerium; test: Fungicidal activity assay on PDA in sealed Petri dish (growth inhibition and mortality); format: cell-based, Fusarium oxysporum f. sp. radicis-cucumerinum; settings: Fusarium oxysporum, NA + number = still viable in the highest concentration tested (given as >), read-out: M - Mortality, minimal concentration that killed the fungus
[2] = system: Sclerotium rolfsii sclerotia; test: Effect on Sclerotium rolfsii sclerotia buried in buckets; format: in vivo
Method: The activity of trans-2-octenal was examined against phytopathogenic fungi and weeds. The experiment was performed in large buckets (110 L), which bottoms were removed, and therefore the loam in the bucket was continuous with the ground. The soil was inoculated one day prior the application of the compound. Soil inoculation was performed as follows: spores of Fusarium oxysporum […]-cucumerinum (FORC) were collected from culture plates and 25 mL of spore suspension at concentration of 9×10^5 was mixed with 10 L of tap water and then poured on the soil of each bucket. […] Half of the buckets were sealed with nylon while the other half remained open. Five days later, soil samples from three different depths (10, 20, and 30 cm) were taken from each bucket for fungal isolation and determination of fungal survival. […] After 3 days, the number of colonies was counted. […] Similar experiment was carried out with Sclerotium rolfsii as the phytopathogen fungus. The experiment was performed as above with the following modifications: 50 sclerotia of S. rolfsii were inserted into paper tea-bags and warped with nylon tights. Each bucket contained 9 tea-bags, 3 for each depth of 10, 20, and 30 cm. After burying the tea bags, the soil was watered with 10 L of tap water. […] Hyphal growth was detected after 2 days incubation at 25° C.

P. digitatum = test: Fungicidal activity assay on PDA in sealed Petri dish (growth inhibition and mortality); format: cell-based, Penicillium digitatum; settings: Penicillium digitatum, NA + number = still viable in the highest concentration tested (given as >), read-out: M - Mortality, minimal concentration that killed the fungus
Method: as §1

CCCCC/C=C/C=O [trans-2-octenal]
MFC (B. cinerea): 50 µg/mL
growth of the tomato seedling in treated versus untreated soil (tomato seedlings): no significant difference
MFC [1]: 6.25 µg/mL
viability of sclerotia ([2]; depth 10 cm, open and close conditions, 125-250 ppm): reduced significantly
effect on viability of sclerotia ([2]; depth 30 cm, close conditions only, 250 ppm): significant effect
MFC (P. digitatum): 12.5 µg/mL
